Reference: patent US20180215783A1, “BIOORTHOGONAL REACTION OF AN AMINE N-OXIDE AND A BORON AGENT” (The Regents of the University of California, priority 2015, published 2018)

Columns and labels:
[1] = Reaction kinetics of amine N-oxide with p-nitrophenylboronic acid in water, UV/vis absorption of p-nitrophenol, pseudo-first order; details: reaction with p-nitrophenylboronic acid (2) in water, room temperature
Method: A first experiment was performed to determine the kinetic parameters for the reaction between TMAO (1) and p-nitrophenylboronic acid (2) in water (see FIG. 1, panel A). Reaction progress was monitored by UV/vis absorption of product p-nitrophenol (3) under pseudo-first order conditions. A second-order rate constant of 2.83±0.05×10^−6 M^−1s^−1 was determined for the reaction at room temperature, several orders of magnitude below current standards of bioorthogonal reactivity (see e.g., Lang et al., ACS Chem. Biol. 2014, 9, 16; McKay et al. Chem. Biol. 2014, 21, 1075; Patterson et al., ACS Chem. Biol. 2014, 9, 592; (e) Sletten et al., Angew. Chem. Int. Ed. 2009, 48, 6974) but nonetheless a starting point for kinetic optimization.

[2] = tested on: HEK293T cells transiently transfected with a cytosolic GFP-HaloTag fusion construct; assay: Intracellular uncaging and membrane permeability in live cells, confocal microscopy; format: cell-based, human
Method: Green (left column), red (middle column), and blue (not shown) channels represent GFP, TAMRA, and Hoechst 33342 fluorescence, respectively. The merged image (right column) is a composite of all three channels with a phase contrast image.
HEK293T cells were transiently transfected with a cytosolic GFP-HaloTag fusion construct, then treated with 100 µM compound 10.

[3] = Reaction kinetics of N-oxides with B2pin2, stopped-flow fluorometry, pseudo-first order; details: reaction with B2pin2 in PBS (pH 7.4), pseudo-first order conditions
Method: Data represent the mean of experiments performed in triplicate. […] Data represent the mean of experiments performed in triplicate. Error bars represent a standard deviation. […] Data represent the mean of experiments performed in triplicate. […] Data represent the mean of experiments done in triplicate. Error bars represent a standard deviation.
The kinetics of the reaction were first evaluated using N-oxide 6 (FIG. 2, panel A).
The reaction was then performed on a biomolecule. […] It should be noted, however, that pseudo-first-order kinetics performed under saturating conditions can obscure important information regarding the deactivation of the diboron reagent through sequestration or off-target reactivity. To address this issue, a 64-kDa GFP-HaloTag fusion protein was expressed, ligated to compound 10 to produce GFP-HaloTag-10.

With `C[N+](C)(C)[O-]` [TMAO, Trimethylamine N-oxide] the second-order rate constant [1] was 2.83±0.05×10^−6 M^−1s^−1.
With “5(6)-HaloTag Tetramethylrhodamine Bis-N-Oxide [compound 10]” the “TAMRA signal upon addition of B2pin2” value ([2]; cells loaded with compound, washed, B2pin2 0 μM, 10 μM, 100 μM or 1 mM in media for 45 min) was “increased” and the membrane permeability ([2]; live HEK293T cells) was “cell permeable”.
With HaloTag Rhodol N-Oxide [compound 8] the second-order rate constant [3] was 1.71±0.043×10^3 M^−1s^−1.
